Source: PubChem BioAssay (NCI)
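Five compound concentrations were applied to cells in 96-well plates for 48 hours; endpoints were derived by simple linear interpolation of the resulting dose-response curve. GI50 marks 50% less growth. TGI: concentration producing complete growth inhibition.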

Columns and labels:
Test in all cases: inhibition of tumour cell growth, NCI panel, 48 h
786-0 renal = tested on: 786-0 renal
A498 renal = tested on: A498 renal
A549 NSCLC = tested on: A549 NSCLC
ACHN renal = tested on: ACHN renal
BT-549 breast = tested on: BT-549 breast
CAKI-1 renal = tested on: CAKI-1 renal
CCRF-CEM leukemia = tested on: CCRF-CEM leukemia
COLO 205 colon = tested on: COLO 205 colon
DU-145 prostate = tested on: DU-145 prostate
EKVX NSCLC = tested on: EKVX NSCLC
HCC-2998 colon = tested on: HCC-2998 colon
HCT-116 colon = tested on: HCT-116 colon
HCT-15 colon = tested on: HCT-15 colon
HL-60(TB) leukemia = tested on: HL-60(TB) leukemia
HOP-62 NSCLC = tested on: HOP-62 NSCLC
HOP-92 NSCLC = tested on: HOP-92 NSCLC
HS 578T breast = tested on: HS 578T breast
HT29 colon = tested on: HT29 colon
IGROV1 ovarian = tested on: IGROV1 ovarian
K-562 leukemia = tested on: K-562 leukemia
KM12 colon = tested on: KM12 colon
LOX IMVI melanoma = tested on: LOX IMVI melanoma
M14 melanoma = tested on: M14 melanoma
MALME-3M melanoma = tested on: MALME-3M melanoma
MCF7 breast = tested on: MCF7 breast
MDA-MB-231 breast = tested on: MDA-MB-231 breast
MDA-MB-435 = tested on: MDA-MB-435
MOLT-4 leukemia = tested on: MOLT-4 leukemia
NCI-H226 lung = tested on: NCI-H226 lung
NCI-H23 lung = tested on: NCI-H23 lung
NCI-H460 lung = tested on: NCI-H460 lung
NCI-H522 lung = tested on: NCI-H522 lung
NCI/ADR-RES ovarian = tested on: NCI/ADR-RES ovarian
OVCAR-3 ovarian = tested on: OVCAR-3 ovarian
OVCAR-4 ovarian = tested on: OVCAR-4 ovarian
OVCAR-5 ovarian = tested on: OVCAR-5 ovarian
OVCAR-8 ovarian = tested on: OVCAR-8 ovarian
PC-3 prostate = tested on: PC-3 prostate
RPMI-8226 leukemia = tested on: RPMI-8226 leukemia
SF-268 CNS = tested on: SF-268 CNS
SF-295 CNS = tested on: SF-295 CNS
SF-539 CNS = tested on: SF-539 CNS
SK-MEL-2 melanoma = tested on: SK-MEL-2 melanoma
SK-MEL-28 melanoma = tested on: SK-MEL-28 melanoma
SK-MEL-5 melanoma = tested on: SK-MEL-5 melanoma
SK-OV-3 ovarian = tested on: SK-OV-3 ovarian
SN12C renal = tested on: SN12C renal
SNB-19 CNS = tested on: SNB-19 CNS
SNB-75 CNS = tested on: SNB-75 CNS
SR leukemia = tested on: SR leukemia
SW-620 colon = tested on: SW-620 colon
T-47D breast = tested on: T-47D breast
TK-10 renal = tested on: TK-10 renal
U251 CNS = tested on: U251 CNS
UACC-257 melanoma = tested on: UACC-257 melanoma
UACC-62 melanoma = tested on: UACC-62 melanoma
UO-31 renal = tested on: UO-31 renal

In the case of COc1cc(O)c2c3c(ccnc13)-c1ccccc1N2, the GI50 (786-0 renal) is reported as 12.3 µM, the TGI (786-0 renal) is reported as > 100 µM and the GI50 (A498 renal) is reported as 22.4 µM. For the same molecule, the TGI (A498 renal) was 42.2 µM, the GI50 (A549 NSCLC) was 2.37 µM and the TGI (A549 NSCLC) was > 100 µM. It also gave a GI50 (ACHN renal) of 3.02 µM, a TGI (ACHN renal) of 77.9 µM and a GI50 (BT-549 breast) of 15.4 µM. The TGI (BT-549 breast) was 60.2 µM, the GI50 (CAKI-1 renal) was 12.8 µM and the TGI (CAKI-1 renal) was 47.4 µM. For the same molecule, the GI50 (CCRF-CEM leukemia) was 7.36 µM, the TGI (CCRF-CEM leukemia) was > 100 µM and the GI50 (COLO 205 colon) was 6.23 µM. For the same molecule, the TGI (COLO 205 colon) was > 100 µM, the GI50 (DU-145 prostate) was 2.77 µM and the TGI (DU-145 prostate) was 35.7 µM. The GI50 (EKVX NSCLC) was 14.9 µM, the TGI (EKVX NSCLC) was 51.3 µM and the GI50 (HCC-2998 colon) was 4.39 µM. For the same molecule, the TGI (HCC-2998 colon) was 12.3 µM, the GI50 (HCT-116 colon) was 2.4 µM and the TGI (HCT-116 colon) was > 100 µM. The GI50 (HCT-15 colon) was 2.35 µM, the TGI (HCT-15 colon) was 29.1 µM and the GI50 (HL-60(TB) leukemia) was 21.8 µM. The TGI (HL-60(TB) leukemia) was > 100 µM, the GI50 (HOP-62 NSCLC) was 10.4 µM and the TGI (HOP-62 NSCLC) was > 100 µM. The GI50 (HOP-92 NSCLC) was 24.7 µM, the TGI (HOP-92 NSCLC) was > 100 µM and the GI50 (HS 578T breast) was 15.5 µM. For the same molecule, the TGI (HS 578T breast) was 92.8 µM, the GI50 (HT29 colon) was 5.11 µM and the TGI (HT29 colon) was > 100 µM. The GI50 (IGROV1 ovarian) was 10.8 µM, the TGI (IGROV1 ovarian) was > 100 µM and the GI50 (K-562 leukemia) was 28.1 µM. For the same molecule, the TGI (K-562 leukemia) was > 100 µM, the GI50 (KM12 colon) was 5.06 µM and the TGI (KM12 colon) was 64.5 µM. It also gave a GI50 (LOX IMVI melanoma) of 3.2 µM, a TGI (LOX IMVI melanoma) of 31.7 µM and a GI50 (M14 melanoma) of 1.69 µM. It also gave a TGI (M14 melanoma) of 7.95 µM, a GI50 (MALME-3M melanoma) of 14.9 µM and a TGI (MALME-3M melanoma) of 46.5 µM. The GI50 (MCF7 breast) was 2.01 µM, the TGI (MCF7 breast) was 8.59 µM and the GI50 (MDA-MB-231 breast) was 5.19 µM. For the same molecule, the TGI (MDA-MB-231 breast) was 71.9 µM, the GI50 (MDA-MB-435) was 1.9 µM and the TGI (MDA-MB-435) was 3.66 µM. For the same molecule, the GI50 (MOLT-4 leukemia) was 21.2 µM, the TGI (MOLT-4 leukemia) was > 100 µM and the GI50 (NCI-H226 lung) was 18.6 µM. For the same molecule, the TGI (NCI-H226 lung) was 91.9 µM, the GI50 (NCI-H23 lung) was 20.5 µM and the TGI (NCI-H23 lung) was > 100 µM. For the same molecule, the GI50 (NCI-H460 lung) was 2.69 µM, the TGI (NCI-H460 lung) was > 100 µM and the GI50 (NCI-H522 lung) was 9.34 µM. For the same molecule, the TGI (NCI-H522 lung) was 60 µM, the GI50 (NCI/ADR-RES ovarian) was 9.25 µM and the TGI (NCI/ADR-RES ovarian) was 92.7 µM. The GI50 (OVCAR-3 ovarian) was 2.01 µM, the TGI (OVCAR-3 ovarian) was 5.96 µM and the GI50 (OVCAR-4 ovarian) was 2.85 µM. For the same molecule, the TGI (OVCAR-4 ovarian) was 25.1 µM, the GI50 (OVCAR-5 ovarian) was 25.3 µM and the TGI (OVCAR-5 ovarian) was > 100 µM. The GI50 (OVCAR-8 ovarian) was 4.87 µM, the TGI (OVCAR-8 ovarian) was > 100 µM and the GI50 (PC-3 prostate) was 5.61 µM. For the same molecule, the TGI (PC-3 prostate) was > 100 µM, the GI50 (RPMI-8226 leukemia) was 3.93 µM and the TGI (RPMI-8226 leukemia) was > 100 µM. For the same molecule, the GI50 (SF-268 CNS) was 8.63 µM, the TGI (SF-268 CNS) was 98.9 µM and the GI50 (SF-295 CNS) was 5.9 µM. It also gave a TGI (SF-295 CNS) of 53.7 µM, a GI50 (SF-539 CNS) of 3.33 µM and a TGI (SF-539 CNS) of 10.8 µM. For the same molecule, the GI50 (SK-MEL-2 melanoma) was 21.8 µM, the TGI (SK-MEL-2 melanoma) was 61.5 µM and the GI50 (SK-MEL-28 melanoma) was 21.1 µM. For the same molecule, the TGI (SK-MEL-28 melanoma) was 72.8 µM, the GI50 (SK-MEL-5 melanoma) was 2.73 µM and the TGI (SK-MEL-5 melanoma) was 12.5 µM. For the same molecule, the GI50 (SK-OV-3 ovarian) was 28.5 µM, the TGI (SK-OV-3 ovarian) was > 100 µM and the GI50 (SN12C renal) was 5.42 µM. For the same molecule, the TGI (SN12C renal) was 20 µM, the GI50 (SNB-19 CNS) was 4.86 µM and the TGI (SNB-19 CNS) was 49.2 µM. For the same molecule, the GI50 (SNB-75 CNS) was 17 µM, the TGI (SNB-75 CNS) was > 100 µM and the GI50 (SR leukemia) was 0.488 µM. For the same molecule, the TGI (SR leukemia) was > 100 µM, the GI50 (SW-620 colon) was 2.63 µM and the TGI (SW-620 colon) was > 100 µM. The GI50 (T-47D breast) was 8.32 µM, the TGI (T-47D breast) was > 100 µM and the GI50 (TK-10 renal) was 33.2 µM. For the same molecule, the TGI (TK-10 renal) was 85.9 µM, the GI50 (U251 CNS) was 6.07 µM and the TGI (U251 CNS) was 79.6 µM. The GI50 (UACC-257 melanoma) was 5.71 µM, the TGI (UACC-257 melanoma) was > 100 µM and the GI50 (UACC-62 melanoma) was 4.33 µM. For the same molecule, the TGI (UACC-62 melanoma) was 17.1 µM, the GI50 (UO-31 renal) was 18.8 µM and the TGI (UO-31 renal) was > 100 µM.
